US9340521B2, “Method for dual inhibition of SGLT1 and SGLT2 using diphenylmethane derivatives” (GREEN CROSS CORPORATION, priority 2013, dated 2016)

Experiments:
[1] = target: Human SGLT2 (hSGLT2) (Homo sapiens (Human), UniProt P31639); experiment: Inhibitory effects on human SGLT2 activities (14C-AMG uptake, sodium-dependent glucose transport assay); format: cell-based; conditions: hSGLT2-expressing CHO cells, 37° C. for 2 h, single determinations
Outline: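 CHO cells stably expressing hSGLT2 were preincubated 10 min at 37 °C in choline (Na+-free) buffer, then exposed 2 h at 37 °C to compound in Na+ uptake buffer with 8 μM 14C-AMG and 1 mM unlabeled AMG. Radioactivity was scintillation counted; IC50 came from nonlinear regression.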

[2] = target: Human SGLT1 (hSGLT1) (Homo sapiens (Human), UniProt P13866); experiment: Inhibitory effects on human SGLT1 activities (14C-AMG uptake, sodium-dependent glucose transport assay); format: cell-based; conditions: 37° C. for 2 h, single determinations
Sequence of Human SGLT1 (hSGLT1) (P13866 whole entry): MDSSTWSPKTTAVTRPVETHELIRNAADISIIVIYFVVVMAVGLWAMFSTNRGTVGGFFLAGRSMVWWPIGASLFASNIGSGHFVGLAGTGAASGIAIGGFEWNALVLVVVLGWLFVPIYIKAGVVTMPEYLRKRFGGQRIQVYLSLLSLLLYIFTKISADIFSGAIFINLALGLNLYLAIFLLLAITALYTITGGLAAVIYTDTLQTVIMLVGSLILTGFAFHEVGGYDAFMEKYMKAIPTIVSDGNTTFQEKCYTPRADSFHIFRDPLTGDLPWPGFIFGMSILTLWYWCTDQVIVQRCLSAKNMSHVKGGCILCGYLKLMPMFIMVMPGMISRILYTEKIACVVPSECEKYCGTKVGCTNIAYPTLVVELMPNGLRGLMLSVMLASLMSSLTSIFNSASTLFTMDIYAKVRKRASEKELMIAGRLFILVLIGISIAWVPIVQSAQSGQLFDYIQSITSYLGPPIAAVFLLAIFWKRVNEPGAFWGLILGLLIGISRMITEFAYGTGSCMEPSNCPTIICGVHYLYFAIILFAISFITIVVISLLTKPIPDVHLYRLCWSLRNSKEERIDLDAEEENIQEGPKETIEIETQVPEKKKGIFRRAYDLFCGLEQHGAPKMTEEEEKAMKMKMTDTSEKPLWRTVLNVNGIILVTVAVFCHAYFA

Sequence of Human SGLT2 (hSGLT2) (P31639 whole entry): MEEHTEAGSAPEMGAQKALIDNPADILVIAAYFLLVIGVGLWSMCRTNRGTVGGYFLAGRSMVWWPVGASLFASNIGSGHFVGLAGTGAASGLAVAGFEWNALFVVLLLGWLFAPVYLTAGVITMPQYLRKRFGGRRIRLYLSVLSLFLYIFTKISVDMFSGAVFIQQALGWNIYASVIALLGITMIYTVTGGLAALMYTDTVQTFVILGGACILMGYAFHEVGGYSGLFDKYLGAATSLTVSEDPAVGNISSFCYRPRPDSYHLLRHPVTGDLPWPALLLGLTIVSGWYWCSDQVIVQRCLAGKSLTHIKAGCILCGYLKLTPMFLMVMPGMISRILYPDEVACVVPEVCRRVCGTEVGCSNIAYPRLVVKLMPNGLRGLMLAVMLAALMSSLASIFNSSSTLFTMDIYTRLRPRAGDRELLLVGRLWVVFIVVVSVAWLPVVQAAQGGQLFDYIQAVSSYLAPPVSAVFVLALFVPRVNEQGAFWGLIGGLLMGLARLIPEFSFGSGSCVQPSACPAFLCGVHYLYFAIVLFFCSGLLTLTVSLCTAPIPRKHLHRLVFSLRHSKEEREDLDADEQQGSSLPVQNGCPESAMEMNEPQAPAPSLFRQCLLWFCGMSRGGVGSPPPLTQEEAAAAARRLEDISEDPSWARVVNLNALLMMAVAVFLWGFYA

Row | IC50 [1] [nM] | IC50 [2] [nM] | Structure (SMILES)
1 | 1.1 | 125 | OC[C@H]1O[C@@H](c2cc(Cc3ccc(-c4ccc(F)cc4)s3)c(Cl)c3c2OCCO3)[C@H](O)[C@@H](O)[C@@H]1O [Compound E054, (2S,3R,4R,5S,6R)-2-(8-Chloro-7-((5-(4-fluorophenyl)thiophen-2-yl)methyl)-2,3-dihydrobenzo[b][1,4]dioxin-5-yl)-6-(hydroxymethyl)tetrahydro-2H-pyran-3,4,5-triol]
2 | 1 | 9.2 | Cc1ccc(Cc2cc([C@@H]3O[C@H](CO)[C@@H](O)[C@H](O)[C@H]3O)c3c(c2Cl)OCCO3)cc1 [Compound E042, (2S,3R,4R,5S,6R)-2-(8-chloro-7-(4-methylbenzyl)-2,3-dihydrobenzo[b][1,4]dioxin-5-yl)-6-(hydroxymethyl)tetrahydro-2H-pyran-3,4,5-triol]
